Data reported in patent US20250304537A1 (Repare Therapeutics Inc., priority 2022, published 2025).
Read-outs that look alike come from different tables or passages of the source.

Key:
[1] = target: recombinant human Myt1 (full length PKMYT1) (Homo sapiens (Human), UniProt Q99640); experiment: Recombinant human Myt1 kinase assay (ADP-Glo); type: biochemical; settings: 10 μM ATP
Method in brief: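 ADP-Glo luminescence measured ATP hydrolysis by recombinant full-length PKMYT1 (18 nM) after 60 min at 30 °C with 10 μM ATP. Compounds in 0.5% DMSO were added to the enzyme 15 min before ATP, at 22 °C, in HEPES/MgCl2/MnCl2 buffer. IC50 and percent maximal inhibition were derived.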

[2] = test system: PKMYT1 (CDK1 pThr14) in FUOV1 cells; experiment: PKMYT1 cell-based activity assay, CDK1 pThr14 AlphaLISA in FUOV1 cells; settings: read-out: FUOV-1 CDK1 pThr14 IC50
Method in brief: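 IC50 was derived from AlphaLISA signal (excitation 680 nm, emission 615 nm) for phospho-Thr14 CDK1 in lysates. The detection antibodies were rabbit anti-pThr14 and mouse anti-total CDK1, each at 5 nM. FUOV1 ovarian cells were exposed to compound for 2 hours before lysis.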

Chain of recombinant human Myt1 (full length PKMYT1) (Q99640 whole entry): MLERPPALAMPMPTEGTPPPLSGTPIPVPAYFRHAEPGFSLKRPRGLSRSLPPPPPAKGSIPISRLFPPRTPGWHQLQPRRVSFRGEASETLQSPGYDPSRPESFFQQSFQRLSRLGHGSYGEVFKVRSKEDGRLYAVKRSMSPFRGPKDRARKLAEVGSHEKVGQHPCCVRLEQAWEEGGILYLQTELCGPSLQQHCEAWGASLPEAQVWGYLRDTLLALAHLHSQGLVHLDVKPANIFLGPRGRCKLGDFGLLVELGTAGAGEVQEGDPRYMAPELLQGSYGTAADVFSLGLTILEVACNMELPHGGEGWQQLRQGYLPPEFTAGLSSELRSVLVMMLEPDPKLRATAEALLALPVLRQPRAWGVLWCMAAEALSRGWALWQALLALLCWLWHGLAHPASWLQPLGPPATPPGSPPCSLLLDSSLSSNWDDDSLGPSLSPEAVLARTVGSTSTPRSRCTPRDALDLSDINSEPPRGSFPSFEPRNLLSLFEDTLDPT

| SMILES | IC50 [1] [µM] | IC50 ([2]; 2 h incubation) [µM] | IC50 ([2]; 2 h, 2 h incubation) [µM] | IC50 ([2]; 2 h, 2 hours with compound) [µM] | IC50 ([2]; 2 h, 2 h compound incubation) [µM] |
| --- | --- | --- | --- | --- | --- |
| Cc1ccc(O)c(C)c1-c1nc(-c2ccnnc2)cc(C(N)=O)c1N [Compound 88] | 0.007 | 0.401 |  |  |  |
| Cc1ccc(O)c(C)c1-c1cc(-c2ccnnc2)cc(C(N)=O)c1N [Compound 93] | 0.025 |  | 0.937 |  |  |
| Cc1ccc(O)c(C)c1-c1cc(-c2cncs2)nc(C(N)=O)c1N [Compound 90] | 0.003 | 0.058 |  |  |  |
| Cc1ccc(O)c(C)c1-c1cc(-c2ncc(F)cc2F)nc(C(N)=O)c1N [Compound 39] | 0.007 |  | 0.266 |  |  |
| Cc1ccc2[nH]ncc2c1-c1cc(-c2ccnc(OCCn3ccnc3)n2)nc(C(N)=O)c1N [Compound 315] | 0.009 |  | 0.349 |  |  |
| Cc1ccc(O)cc1-c1nc(-c2ccccc2)nc(C(N)=O)c1N [Compound 2, 5-amino-6-(5-hydroxy-2-methylphenyl)-2-phenylpyrimidine-4-carboxamide] | 0.011 |  | 0.517 |  |  |
| COCCCOc1nccc(-c2cc(-c3c(C)ccc4[nH]ncc34)c(N)c(C(N)=O)n2)n1 [Compound 197] | 0.012 |  | 0.267 |  |  |
| Cc1ccc2[nH]ncc2c1-c1nc(-c2cccnc2NC2(C)CC(C)(O)C2)nc(C(N)=O)c1N (centres unmarked) [Compound 901] | < 0.003 |  |  | 0.027 |  |
| Cc1ccc2[nH]ncc2c1-c1cc(-c2cccc(OCc3cccnc3)n2)nc(C(N)=O)c1N [Compound 179] | 0.007 |  | 0.423 |  |  |
| Cc1ccc2[nH]ncc2c1-c1nc(-c2ccccc2NC2CCC(F)(F)CC2)nc(C(N)=O)c1N [Compound 453] | 0.012 |  |  |  | 0.317 |
| CCNC(=O)c1ccccc1-c1nc(C(N)=O)c(N)c(-c2c(C)ccc3[nH]ncc23)n1 [Compound 807] | 4.05 |  |  | > 10 |  |
| CC1(C(=O)Nc2ccccc2-c2nc(C(N)=O)c(N)c(-c3c(Cl)ccc4[nH]ncc34)n2)CC1 [Compound 410] | 0.004 |  |  |  | 0.009 |
| Cc1ccc2[nH]ncc2c1-c1nc(-c2cccc(C#N)c2)nc(C(N)=O)c1N [Compound 131, 5-amino-2-(3-cyanophenyl)-6-(5-methyl-1H-indazol-4-yl)pyrimidine-4-carboxamide] | 0.022 |  | 1.37 |  |  |
| Cc1ccc2[nH]ncc2c1-c1cc(-c2ccnc(OC3CCOC3)n2)nc(C(N)=O)c1N (centres unmarked) [Compound 212] | 0.012 |  | 0.192 |  |  |
| Cc1ccc2[nH]ncc2c1-c1nc(-c2cn(C)nc2NC2CC(F)(F)C2)nc(C(N)=O)c1N [Compound 896] | 0.004 |  |  | 0.147 |  |
| COCC(Oc1nccc(-c2cc(-c3c(C)ccc4[nH]ncc34)c(N)c(C(N)=O)n2)n1)c1ccccc1 (centres unmarked) [Compound 206] | 0.008 |  | 0.554 |  |  |
| NC(=O)c1nc(-c2ccccc2)nc(-c2cc(F)cc3[nH]ncc23)c1N [Compound 122] | 0.137 |  | 0.82 |  |  |
| COc1cc(C)cc(-c2nc(C(N)=O)c(N)c(-c3c(C)ccc4[nH]ncc34)n2)c1 [Compound 143] | 0.023 |  | 1.47 |  |  |
| Cc1ccc2[nH]ncc2c1-c1cc(-c2cccc(OCc3cccnn3)n2)nc(C(N)=O)c1N (atropisomer, axis not shown) [Compound 260] | 0.004 | 0.167 |  |  |  |
| Cc1cccc(-c2cc(-c3c(C)ccc(O)c3C)c(N)c(C(N)=O)n2)n1 [Compound 91] | 0.003 | 0.113 |  |  |  |
| Cc1ccc2[nH]ncc2c1-c1cc(-c2ccnc(OCCO)n2)nc(C(N)=O)c1N [Compound 299] | 0.013 |  | 0.232 |  |  |
| COCCOc1nccc(-c2cc(-c3c(C)ccc4[nH]ncc34)c(N)c(C(N)=O)n2)n1 [Compound 166] | 0.003 |  | 0.109 |  |  |
